Data taken from US20120329158A1, “Methods of Plant Regeneration and Apparatus Therefor” (priority 2010, published 2012).

Tested on: sugarcane artificial seeds (Q208 and KQ228)
Assay: Germination and conversion of sugarcane artificial seeds into plantlets in liquid MS medium with or without auxins
Details: MS medium supplemented with small amounts of auxin; varieties Q208 and KQ228 (FIG. 34)
Protocol: Thirty-six artificial plant seeds (approx 15 mL) were placed into a sterile 250 mL Erlenmeyer flask with 85 mL of sterile MS liquid with 30 gL^−1 sucrose. Flasks were placed on the gyratory shaker trays at 120 rpm, 27° C.±1° C., and a 16 h photoperiod provided by cool white fluorescent tubes for 2-3 weeks. The media was decanted off and replaced every 3-4 days.
In this medium the artificial plant seeds germinated and produced normal plantlets within 3 weeks (FIG. 5). The seeds change from a transparent gel bead to a brown-black colour within the first few days of being placed into liquid culture. Within 7-10 days there is shoot production from the seeds and within two weeks the shoots are elongating and root production outside of the artificial plant seed begins. Within 3 weeks the plantlet has fully developed, with both extensive shoot and root production, outside of the gel. Variations in the rate of plantlet emergence are to be expected with different genotypes (FIG. 6 and FIG. 7). Typical growth conditions for liquid culture are 120 rpm and 27° C. with a 16 hour photoperiod.
In general, plantlets produced with growth regulators were stunted if hormone levels were 1 μM compared to those obtained from growth regulator-tee MS medium. As such, MS is typically used for the liquid culture medium. Regeneration of artificial plant seeds into plantlets at a rate of 70-90% is achievable. […]

SMILES: O=C(O)CCCc1c[nH]c2ccccc12 [indole-3 butyric acid (IBA), indole-3-butyric acid]
- conversion of artificial seeds to plantlets: improved conversion of seeds to plantlets

SMILES: O=C(O)Cc1cccc2ccccc12 [α-naphthaleneacetic acid (NAA), α-naphthaleneacetic acid]
- conversion of artificial seeds to plantlets: improved conversion of seeds to plantlets
